From publication doi:10.1101/2024.06.04.597308v2 (biorxiv, 2024)
Changes are numbered by the printed parent chain.

Columns and labels:
Assay in all cases: isothermal titration calorimetry
Type in all cases: binding
[1] = target: T1, 3β-OH-Δ^5-6-cholesterol-5β-reductase (5βChR); putative cholesterol dehydrogenase (Limosilactobacillus fermentum, UniProt A0ABF7R4H0, F190A); details: NADP+ titration; C-terminal substrate-pocket mutant
T1 sequence (A0ABF7R4H0 1-249 F190A): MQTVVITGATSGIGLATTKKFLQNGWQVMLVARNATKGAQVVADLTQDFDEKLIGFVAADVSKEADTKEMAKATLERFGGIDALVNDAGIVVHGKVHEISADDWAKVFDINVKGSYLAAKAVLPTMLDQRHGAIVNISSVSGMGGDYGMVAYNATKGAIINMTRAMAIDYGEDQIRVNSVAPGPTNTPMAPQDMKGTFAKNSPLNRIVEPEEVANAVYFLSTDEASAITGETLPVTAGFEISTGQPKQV

[2] = target: T2, 3β-OH-Δ^5-6-cholesterol-5β-reductase (5βChR); putative cholesterol dehydrogenase (Limosilactobacillus fermentum, UniProt A0ABF7R4H0, T187A); details: NADP+ titration; C-terminal substrate-pocket mutant
T2 sequence (A0ABF7R4H0 1-249 T187A): T1 sequence (A0ABF7R4H0 1-249 F190A) with T187A, A190F

[3] = target: T3, 3β-OH-Δ^5-6-cholesterol-5β-reductase (5βChR); putative cholesterol dehydrogenase (Limosilactobacillus fermentum, UniProt A0ABF7R4H0, M189A); details: NADP+ titration; C-terminal substrate-pocket mutant
T3 sequence (A0ABF7R4H0 1-249 M189A): T1 sequence (A0ABF7R4H0 1-249 F190A) with M189A, A190F

[4] = target: T4, 3β-OH-Δ^5-6-cholesterol-5β-reductase (5βChR); putative cholesterol dehydrogenase (Limosilactobacillus fermentum, UniProt A0ABF7R4H0, S139A); details: catalytic tetrad mutant
T4 sequence (A0ABF7R4H0 1-249 S139A): T1 sequence (A0ABF7R4H0 1-249 F190A) with S139A, A190F

[5] = target: T5, 3β-OH-Δ^5-6-cholesterol-5β-reductase (5βChR); putative cholesterol dehydrogenase (Limosilactobacillus fermentum, UniProt A0ABF7R4H0, Y152A); details: catalytic tetrad mutant
T5 sequence (A0ABF7R4H0 1-249 Y152A): T1 sequence (A0ABF7R4H0 1-249 F190A) with Y152A, A190F

In the case of NC(=O)c1ccc[n+]([C@@H]2O[C@H](COP(=O)(O)OP(=O)(O)OC[C@H]3O[C@@H](n4cnc5c(N)ncnc54)[C@H](OP(=O)(O)O)[C@@H]3O)[C@@H](O)[C@H]2O)c1 [NADP^+], the Kd [1] is reported as 5.2 µM, the Kd [2] is reported as 8.77 µM and the Kd [3] is reported as 7.49 µM.
CC(C)CCC[C@@H](C)[C@H]1CC[C@H]2[C@@H]3CC=C4C[C@@H](O)CC[C@]4(C)[C@H]3CC[C@]12C [cholesterol] gave a Kd [4] of 24.8 µM and a Kd [5] of 4.44 µM.
